Test results published in patent publication US20070105810A1, “THERAPEUTICS” (priority 2003, published 2007).
Entries after “also recorded” stand apart in the source; their conditions may differ. Structures can show the parent of a compound that is named as a salt. One block for each compound: values may come before it.

What was measured:
[1] = test system: NAADP-sensitive release mechanism; assay: NAADP-mediated calcium release in sea urchin egg homogenate (Fluo-3); format: biochemical; details: 250 nM NAADP, 2.5% homogenate, read-out: IC50, inhibition of NAADP calcium mobilization
Protocol: (§1) Samples diluted to 2.5% in GluIM in the presence of regenerating system and kept at 17° C. with agitation for 3 hours to facilitate calcium uptake into stores. Calcium release was determined by measuring increase in Fluo-3 fluorescence at 526 nm. Data expressed as % of 250 nM NAADP calcium release in the absence of CMA008 (1-Carbamoylmethyl-3-carboxy-pyridinium iodide). […] CMA008 has no effect on the total calcium mobilization by IP3 or cADPR (insert) indicating the selectivity of this compound on the NAADP-sensitive release mechanism.
(§2) • Subcellular fractions: calcium concentrations are measured with fluo-3 (3 μM) at physiological temperatures, using cell homogenates or subcellular fractions in a fluorimeter (Perkin-Elmer LS-50B) at 506 nm excitation and 526 nm emission. • Intact cells: Injected or hydrolysed ester derivatives of calcium sensitive dye are imaged in intact cells by laser-scanning confocal microscopy (TCS NT, Leica) Images were processed with the software NIH Image to create a self-ratio by dividing each image (F) by an image acquired before stimulation (Fo). [drawing 13] wherein R1, R2 and R3 are as defined herein. I Preparation of Nicotinic Acid Derivatives [drawing 14]

[2] = test system: NAADP binding site; assay: [32P]NAADP binding to sea urchin egg homogenate
Protocol: [^32P]NAADP binding to 0.5% sea urchin egg homogenate.
Competitive CMA008 (1-Carbamoylmethyl-3-carboxy-pyridinium iodide) displacement of [^32P]NAADP (0.2 nM). Samples diluted in GluIM (intracellular medium), pre-incubated with indicated concentration of CMA008 for 10 minutes, then 0.2 nM [^32P]NAADP added and incubated at room temperature for a further 15 mins. Samples filtered through Whatman GF/B filters to separate bound and free [^32P]NAADP ligand. Non specific binding is defined by incubation of the homogenate in the presence of 10 μM NAADP. n=2. Data expressed as a fraction of total binding.
2.5% sea urchin egg homogenate was diluted into GluIM pre-incubated with indicated concentration of CMA008 for 10 minutes at room temperature (A=100 nM, B=1 nM, C=10 μM). Subsequently, [^32P]NAADP was added and samples incubated for a further 15 minutes at room temperature. Samples were filtered through Whatman GF/B filters to separate bound and free [^32P]NAADP ligand.

[3] = test system: pancreatic acinar cells; assay: CCK-induced oscillations of Ca2+ in pancreatic acinar cells; format: cell-based, mouse; details: for CCK-evoked calcium spiking/oscillations: external application, 1 mM, pre- and post-applied with respect to CCK (5 pM)
Protocol: Pancreatic acinar cells were seeded onto poly-lysine-coated number 1 glass coverslips and loaded by incubating cells with 1-5 μM fura-2 acetoxymethylester (Molecular Probes; Leiden, Holland) for 60 min at room temperature. After the loading period, cells were subsequently washed and maintained in buffer at room temperature and used immediately. Cells were excited alternately with 340 and 380 nm light (emission 510 nm), and ratio image of clusters were recorded every 4-5 s, using a 12-bit CCD camera (MicroMax; Princeton Instruments, NJ). All experiment were conducted at room temperature. CMA008 (1-Carbamoylmethyl-3-carboxy-pyridinium iodide) is dissolved in 50% DMSO. Final concentration of DMSO is 0.5% in the solution (composition in mM: 140 NaCl, 4.7 KCl, 1 CaCl2, 1.13 MgCl2, 10 HEPES, 10 Glucose, pH adjusted to 7.2)
Pancreatic acinar cells were isolated from mice and dispersed by collagenase treatment. Cells were incubated with fura-2 AM for 30 min and washed before being imaged on a Metafluor system. The cells were alternately excited at 340/380 nm and emitted light collected at around 510 nm. The ratio of the intensities of emitted light at the two excitation wavelengths were calculated, converted to free calcium concentrations, and plotted again time.
Pancreatic acinar cells were seeded onto poly-lysine-coated number 1 glass coverslips and loaded with calcium indicator by incubating cells with […] fura-2 acetoxymethylester (Molecular Probes; Leiden, Holland) for 60 min at room temperature. After the loading period, cells were subsequently washed and maintained in buffer at room temperature and used immediately. Cells were excited alternately with 340 and 380 nm light (emission 510 nm), and ratio image of clusters 5 were recorded every 4-5 s, using a 12-bit CCD camera (MicroMax; Princeton Instruments, NJ).
All experiments were conducted at room temperature. CMA008 (1-Carbamoylmethyl-3-carboxy-pyridinium iodide) was dissolved in 50% DMSO. Final concentration of DMSO was 0.5% in the solution (composition in mM: 140 NaCl, 4.7 KCl, 1 CaCl2, 1.13 MgCl2, 10 HEPES, 10 Glucose, pH adjusted to 7.2). The inhibition of CCK-evoked calcium spiking, both pre- and post-applied with respect to CCK (5 pM), was consistent with inhibition of NAADP-induced calcium release by CMA008 (1 mM). The biological data for these experiments is presented in FIG. 7 (see also the description of the figures above).

[4] = test system: calcium mobilization by IP3; assay: Calcium mobilization by IP3 in sea urchin egg homogenate; format: biochemical
Protocol: as §1, §2

[5] = test system: NAADP-induced calcium release in intact sea urchin eggs; assay: Calcium release on photolysis of caged NAADP in intact sea urchin eggs; format: cell-based, Lytechinus pictus
Text: Sea urchin eggs were microinjected with a solution containing the calcium reporter dye, calcium green dextran, together with caged NAADP. Fluorescence was then imaged on a Leica confocal microscope using an excitation wavelength of 488 nm. In the control egg [see FIG. 6 A] a brief UV flash photolysed a proportion of the caged NAADP and evoked a large calcium transient.
Sea urchin eggs of Lytechinus pictus were obtained by intracoelomic injection of 0.5 M KCl shed into artificial sea water (in mM, NaCl 435, MgCl2 40, MgSO4 15, CaCl2 11, KCl 10, NaHCO3 2.5, EDTA 1), dejellied by passing through […] nylon mesh, and then washed twice by centrifugation. Eggs were transferred to polylysine-coated glass coverslips for microinjection and microscopy. Oregon Green 488 BAPTA (1,2-bis(2-aminophenoxy)ethane-N,N,N9,N9-tetraacetic acid dextran; Molecular Probes) was pressure-microinjected (Picospritzer; World Precision Instruments). The calcium-sensitive dye was imaged by laser-scanning confocal microscopy (Leica model TCS NT) using the 488-nm line of an argon ion laser for excitation, and the emission was long passfiltered (515 nm) and detected with a photomultiplier tube. Caged NAADP (^29P-(1-(2-nitrophenyl)ethyl) NAADP; Molecular Probes) was purified further by high performance liquid chromatography to remove small amounts of contaminating free NAADP. […]

[6] = test system: calcium mobilization by cADPR; assay: Calcium mobilization by cADPR in sea urchin egg homogenate; format: biochemical
Protocol: as §1, §2

[7] = test system: transfer experimental autoimmune encephalomyelitis (EAE) in Lewis rats; assay: Transfer experimental autoimmune encephalomyelitis (EAE); format: in vivo, Lewis rat; details: 50 μmol/100 g body weight i.p. twice per day; day 3.5 to day 6
Text: Transfer of MBP-specific CD4-positive T cells was used at day 0 to induce experimental autoimmune encephalomyelitis (EAE) in Lewis rats. Animals injected with PBS (vehicle) or nicotinic acid (control compound with structural similarities to BZ52) developed severe paralysis of tail and rear legs due to the inflammation. Clinical symptoms started day 3.5 and reached their maxima day 4 to 6 (or 6.5). Between day 3.5 and day 6, no difference between PBS and nicotinic acid was observed, whereas a beneficial effect of BZ52 was visible (FIG. 14).
Animals (6 per group, body weight approx. 150 g) were injected i.p. twice per day with either PBS (vehicle control), nicotinic acid (50 μmol/100 g body weight), or BZ 52 (50 μmol/100 g body weight). Clinical scores indicate the degree of paralysis of tail and legs. Data are presented as mean±SD from one representative experiment (n=6).
Animals (6 per group, body weight approx. 150 g) were injected i.p. twice per day with either PBS (vehicle control), nicotinic acid (50 μmol/100 g body weight), or BZ 52 (50 μmol/100 g body weight). […] Data are presented as mean±SD from one representative experiment (n=6).
5×10^6 activated MBP specific-GFP Tcells were transferred i.v. into recipient Lewis rats. Clinical EAE was graded in five scores: 0.5, loss of tail tonus; 1, tail paralysis; 2, gait disturbance; 3, hind limb paralysis; 4, tetraparesis; 5, death.
Animals' weight was measured twice a day.
In order to analyze the effect of BZ194 on encephalitogenic T cells during the effector phase of EAE we used retrovirally transduced MBP-specific T cells expressing the marker gene green fluorescent protein (TMBP-GFP cells).
Animals were treated for 5 d intraperitoneally with 500 μmol BZ194 or vehicle (DMSO).

- melting point: 203 to 205 °C
SMILES: O=C(O)c1ccc[n+](Cc2ccccc2)c1 (as salt: bromide)

- melting point: 162 to 165 °C
SMILES: CCC[n+]1cccc(C(=O)O)c1 (as salt: iodide)

- melting point: 163 to 165 °C
SMILES: CCN(CC)C(=O)C[n+]1cccc(C(=O)OC)c1 (as salt: iodide)

- melting point: 98 to 100 °C
SMILES: COC(=O)c1ccc[n+](CCC(N)=O)c1 (as salt: iodide)

- melting point: 167 to 170 °C
SMILES: COC(=O)c1ccc[n+](CCCC#N)c1 (as salt: iodide)

- melting point: 172 to 174 °C
SMILES: CCN(CC)CC[n+]1cccc(C(=O)OC)c1 (as salt: iodide)

- melting point: 97 to 100 °C
SMILES: CCN(CC)C(=O)C[n+]1cccc(C(=O)O)c1 (as salt: iodide) [Example 10, 3-Carboxy-1-diethylcarbamoylmethyl-pyridinium; iodide]

- melting point: 170 to 173 °C
SMILES: NC(=O)CC[n+]1cccc(C(=O)O)c1 (as salt: iodide) [Example 11, 1-(2-Carbamoyl-ethyl)-3-carboxy-pyridinium; iodide]

- IC50 [1]: 15.1 µM
- effect on the Bmax ([2]; 1 nM and 100 nM CMA008): no effect
- Bmax (total specific binding of [32P]NAADP) ([2]; in the presence of 10 μM CMA008, 2.5% homogenate, 68.65%±2.7 in its absence): 46.28%±2.61
- cell membrane permeation ([5]; inferred from activity of compound applied outside the cell): permeates the cell membrane
SMILES: NC(=O)C[n+]1cccc(C(=O)O)c1 [CMA008, 1-Carbamoylmethyl-3-carboxy-pyridinium iodide]
- CCK-evoked calcium spiking ([3]; CMA008 1 mM added post-CCK (5 pM)): inhibition
- resting calcium levels ([3]; CMA008 1 mM added pre-CCK): no apparent effect
- response to CCK ([3]; CMA008 1 mM added pre-CCK (5 pM)): a much smaller response to CCK was seen, with a greatly reduced frequency
- CCK-evoked calcium spiking/oscillations [3]: inhibition
- CCK-evoked calcium spiking/oscillations ([3]; listed as CM008): inhibited or reduced
- effect on total calcium mobilization by IP3 [4]: no effect
- calcium release on photolysis of caged NAADP ([5]; CMA008 10 mM applied externally in sea water, NPE-NAADP 1 μM): blocks; also recorded: failed to induce
- effect on total calcium mobilization by cADPR [6]: no effect

- effect on [32P]NAADP binding to egg membranes ([2]; up to 1 mM, 0.2 nM [32P]NAADP, 0.5% homogenate): without effect
SMILES: O=C(O)c1cccnc1 [nicotinic acid, reference compound]
- clinical symptoms (clinical score) vs PBS [7]: no difference
